Test [1] is described as follows: Binding affinity against melibiose permease ofEscherichia coli. Set-up: species or system Escherichia coli.
Test [2] in a line: Binding affinity against melibiose permease of Escherichia coli.

As to `N#[N+]c1ccc(OC2O[C@H](CO)[C@@H](O)[C@H](O)[C@H]2O)cc1` (some centres undefined), binding in test [1] was characterised by a dissociation constant (Kd) of 60000 nM. Take `[N-]=[N+]=Nc1ccc(OC2O[C@H](CO)[C@@H](O)[C@H](O)[C@H]2O)cc1` (some centres undefined): the Kd in test [1] is 1000 nM. This Kd is about 60-fold lower than that of the compound before. `OC[C@H]1OC(Oc2ccc(C3(C(F)(F)F)N=N3)cc2)[C@H](O)[C@@H](O)[C@@H]1O` (some centres undefined): the Kd in test [1] stood at 2000 nM. Against the preceding compound, the Kd is about 2-fold higher. In the case of `O=[N+]([O-])c1ccc(O[C@H]2O[C@H](CO)[C@@H](O)[C@H](O)[C@H]2O)cc1`, binding in test [2] was characterised by a dissociation constant (Kd) of 600 nM.

What is called Kd is the constant that tells how readily two partners part at equilibrium.

For the origin of these results see ChEMBL document CHEMBL1132886, “Syntheses and properties of photoactivatable sugar derivatives designed to probe the sugar-binding site of melibiose permease” (Bioorg Med Chem Lett, 2000).
